Assay results from patent US9505795B2, “Method for producing scyllo-inositol” (Asahi Kasei Chemicals Corporation, priority 2012, dated 2016).

Experiments:
[1] = water solubility compared with scyllo-inositol; format: physicochemical; details: 25° C., W/V; ratio to scyllo-inositol
Text: Since the scyllo-inositol derivative of the present invention can be produced and treated at high concentration in an aqueous solution, producing scyllo-inositol by obtaining the scyllo-inositol derivative of the present invention and treating it enzymatically has many advantages. Such methods are therefore one preferred method of utilizing the scyllo-inositol derivative of the present invention.

amyloid β protein = details: reported in Non-patent Reference 1; cited from earlier work

| water solubility relative to the original scyllo-inositol [1] | SMILES | effect on amyloid β protein aggregation (amyloid β protein) |
| --- | --- | --- |
| at least four | OC[C@@H]1O[C@@H](O[C@H]2[C@H](O)[C@H](O)[C@H](O)[C@@H](O)[C@H]2O)[C@@H](O)[C@@H](O)[C@@H]1O [scyllo-inositol derivative, 1-O-β-D-glucopyranosyl-scyllo-inositol] |  |
|  | O[C@H]1[C@H](O)[C@@H](O)[C@H](O)[C@@H](O)[C@@H]1O [scyllo-inositol, cis-1,3,5-trans-2,4,6-cyclohexanehexyl] | inhibitory effect |
